From patent US20240158348A1, “HERBICIDAL CYCLIC AMIDES N-SUBSTITUTED WITH A HALOALKYLSULFONYLANILIDE GROUP” (FMC Corporation, priority 2021, published 2024)

Tests used:
Assay type in all cases: in vivo
[1] = test system: foxtail, giant (giant foxtail, Setaria faberi); experiment: Test C preemergence, giant foxtail; conditions: 0 is no effect, 100 is complete control
Method in brief: (§1)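 Greenhouse pot test. Compounds in a non-phytotoxic solvent with surfactant were applied to a loam–sand soil mix either preemergence as a directed spray or postemergence to plants at the one- to two-leaf stage; 0–100 visual ratings followed after 10 or 12 days.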

kochia (Bassia scoparia) = experiment: Test C postemergence, kochia; conditions: for Kochia plant response rating: visual injury, 0 to 100 scale (0 no effect, 100 complete control); for Plant response rating (0 to 100 scale), Kochia: 0 is no effect, 100 is complete control
Method in brief: as §1

[2] = test system: ragweed (common ragweed, Ambrosia artemisiifolia); experiment: Test C preemergence, ragweed; conditions: 0 is no effect, 100 is complete control
Method in brief: (§2)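 Visual injury rating, 0 (no effect) to 100 (complete control), versus untreated controls after 10 or 12 days in the greenhouse. Compounds were formulated in non-phytotoxic solvent plus surfactant and applied either as a directed soil spray at sowing or onto emerged one- to two-leaf plants.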

[3] = test system: barnyardgrass (Echinochloa crusgalli); experiment: Test D flooded paddy test, barnyardgrass; design: key: 0 = no effect, 100 = complete control; conditions: 250 g ai/ha, Flood; applied to paddy water at 2-leaf stage; visual rating after 13 days; scale 0 (no effect) to 100 (complete control)
Method in brief: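 Plants were grown to the 2-leaf stage, then pots were flooded to 3 cm above soil and compounds applied directly into the paddy water, with that depth held throughout. After 13 days in a greenhouse, injury was visually rated against untreated controls on a 0–100 scale (0 no effect, 100 complete control).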

[4] = test system: oat, wild (wild oat, Avena fatua); experiment: Test C preemergence, wild oat; conditions: 0 is no effect, 100 is complete control
Method in brief: as §1

[5] = test system: blackgrass (Alopecurus myosuroides); experiment: Test C preemergence, blackgrass; conditions: 0 is no effect, 100 is complete control
Method in brief: as §1

corn (Zea mays) = experiment: Test C preemergence, corn; conditions: 0 is no effect, 100 is complete control
Method in brief: as §2

[6] = test system: goosegrass (Eleusine indica); experiment: Test C postemergence, goosegrass; conditions: for Goosegrass plant response rating: visual injury, 0 to 100 scale (0 no effect, 100 complete control); for Plant response rating (0 to 100 scale), Goosegrass: 0 is no effect, 100 is complete control
Method in brief: as §1

[7] = test system: wheat (Triticum aestivum); experiment: Test C preemergence, wheat; conditions: 0 is no effect, 100 is complete control

| Structure (SMILES) | Plant response rating (0 to 100 scale), Foxtail, Giant ([1]; 31 g ai/ha Preemergence) | Plant response rating (0 to 100 scale), Foxtail, Giant ([1]; 125 g ai/ha Preemergence) | Kochia plant response rating (kochia (Bassia scoparia); 31 g ai/ha Postemergence) | Plant response rating (0 to 100 scale), Kochia (kochia (Bassia scoparia); 125 g ai/ha Postemergence) | Plant response rating (0 to 100 scale), Ragweed ([2]; 31 g ai/ha Preemergence) | Plant response rating (0 to 100 scale), Ragweed ([2]; 125 g ai/ha Preemergence) | Plant response rating, Barnyardgrass [3] | Plant response rating (0 to 100 scale), Oat, Wild ([4]; 31 g ai/ha Preemergence) | Plant response rating (0 to 100 scale), Oat, Wild ([4]; 125 g ai/ha Preemergence) | Plant response rating (0 to 100 scale), Blackgrass ([5]; 31 g ai/ha Preemergence) | Plant response rating (0 to 100 scale), Blackgrass ([5]; 125 g ai/ha Preemergence) | Plant response rating (0 to 100 scale), Corn (corn (Zea mays); 31 g ai/ha Preemergence) | Plant response rating (0 to 100 scale), Corn (corn (Zea mays); 125 g ai/ha Preemergence) | Goosegrass plant response rating ([6]; 31 g ai/ha Postemergence) | Plant response rating (0 to 100 scale), Goosegrass ([6]; 125 g ai/ha Postemergence) | Plant response rating (0 to 100 scale), Wheat ([7]; 31 g ai/ha Preemergence) | Plant response rating (0 to 100 scale), Wheat ([7]; 125 g ai/ha Preemergence) | Kochia plant response rating (kochia (Bassia scoparia); 125 g ai/ha Postemergence) | Goosegrass plant response rating ([6]; 125 g ai/ha Postemergence) |
| --- | --- | --- | --- | --- | --- | --- | --- | --- | --- | --- | --- | --- | --- | --- | --- | --- | --- | --- | --- |
| Cc1c(NS(=O)(=O)C(F)(F)F)cc(N2CCC(OC3CC3)C2=O)c(C)c1F (stereo not drawn) [Compound 26] | 90 | 100 | 70 | 90 | 90 | 100 | 30 | 60 | 100 | 70 | 90 | 60 | 90 | 80 | 100 | 60 | 100 | – | – |
| CCO/N=C1\CCN(c2cc(NS(=O)(=O)C(F)(F)F)c(C)cc2C)C1=O [Compound 12, N-[5-[3-(ethoxyimino)-2-oxo-1-pyrrolidinyl]-2,4-dimethylphenyl]-1,1,1-trifluoromethanesulfonamide] | 100 | 100 | 90 | 90 | 100 | 100 | 0 | 90 | 100 | 80 | 100 | 70 | 100 | 100 | 100 | 90 | 100 | – | – |
| Cc1cc(C)c(N2CCC(OCC3CC3(F)F)C2=O)cc1NS(=O)(=O)C(F)(F)F (stereo not drawn) [Compound 41] | 100 | 100 | 70 | – | 70 | 90 | 15 | 60 | 100 | 80 | 100 | 90 | 100 | 90 | – | 90 | 100 | 80 | 90 |
| Cc1c(N2CCCC(OC3CC3)C2=O)cc(N(COC(=O)C(C)(C)C)S(=O)(=O)C(F)(F)F)c(C)c1F (stereo not drawn) [Compound 37] | 20 | 90 | 50 | 70 | 0 | 90 | 90 | 20 | 20 | 10 | 60 | 0 | 10 | 0 | 90 | 0 | 20 | – | – |
| Cc1c(NS(=O)(=O)C(F)(F)F)cc(N2CCC(OC3CCC3)C2=O)c(C)c1F (stereo not drawn) [Compound 25] | 100 | 100 | 60 | 90 | 90 | 100 | 0 | 40 | 90 | 80 | 90 | 30 | 90 | 50 | 90 | 60 | 100 | – | – |
| CC#CCOC1CCN(c2cc(NS(=O)(=O)C(F)(F)F)c(C)cc2C)C1=O (stereo not drawn) [Compound 60] | 100 | 100 | 100 | – | 90 | 100 | 90 | 90 | 100 | 80 | 90 | 30 | 100 | 80 | – | 40 | 100 | 90 | 90 |
